The source of these data is patent EP4703359A1 (Shanghai Simr Biotechnology Co., Ltd., priority 2023, dated 2024).

For experiment [1], the target named is T1, α2-GABAA receptor (Homo sapiens, UniProt P18507+P47869).
T1 construct: expressed in transfected cells
Nature of the experiment: Whole-cell patch-clamp electrophysiology, positive allosteric modulatory activity in α2-GABAAR-HEK293 cells. The settings on record: for Emax at 0.1 µM: read-out: α2-GABAAR Positive allosteric modulatory activity. The class given is cell-based. An excerpt:
(§1) The α subunit, β subunit, and γ subunit are indispensable for forming a fully functional GABAA receptor. In this example, HEK293 cells stably expressing α2-GABAA receptors (α2-GABAAR) were constructed and screened respectively via liposome transfection (Felgner, P.L., et al. Proceedings of the National Academy of Sciences, 1987, 84: 7413-7417). The α2-GABAAR-HEK293 cell model co-expresses the α2 subunit (protein sequence referenced under GenBank accession number: NM_000807.4), β3 subunit (protein sequence referenced under GenBank accession number: NM_000814.5), and γ2 subunit (protein sequence referenced under GenBank accession number: NM_000816.3).
(§2) The above cell lines were subcultured. α2-GABAAR-HEK293 cells were amplified for testing the affinity of compounds to the benzodiazepine (BZD) site of GABAA receptors. Some of the α2-GABAAR-HEK293 cells in suspension during subculturing were plated on glass slides pre-treated with Poly-D-Lysine for electrophysiological testing (method reference: Patent CN 107344936 A, paragraph 0586).
The positive modulatory activity of the test drug on the α2-GABAA receptor was assessed using electrophysiological methods. The specific approach is as follows:
With regards to the concentration of the compound, the final concentration of all compounds used in the screening was 100 nM. For cell lines expressing α2-GABAA receptors, the GABA concentration was 0.10 to 0.11 µM (approximately EC7-8). Electrophysiological experiments were conducted using the whole-cell patch-clamp technique, which can be referenced to the method reported in the literature (Nickolls, S. A., et al. *British Journal of Pharmacology*, 2018, 175: 708-725). The composition of the extracellular solution (ECS) for electrophysiology was as follows: 150 mM NaCl, 5 mM KCl, 2.5 mM CaCl2, 1 mM MgCl2, 10 mM HEPES, and 10 mM glucose (pH 7.4). The intracellular solution (ICS) for electrophysiology was formulated as follows: 140 mM CsCl, 11 mM EGTA, 10 mM HEPES, 2 mM CaCl2, 1 mM MgCl2, 4 mM MgATP, and 2 mM TEA (pH 7.3). GABA (γ-aminobutyric acid) powder was dissolved in pure water to prepare a stock solution, which was subsequently diluted in ECS. The compound was initially dissolved in dimethyl sulfoxide to prepare a 4 mM stock solution, followed by stepwise dilution into GABA-ECS at corresponding concentrations. All solutions were freshly prepared prior to electrophysiological testing.
Electrophysiological signals were acquired using an EPC 10 amplifier and PatchMaster software (HEKA) or an Axon 700B amplifier and Clampex software (AXON). The recording electrode was pulled from borosilicate glass, with an electrode resistance of 4 to 6 MΩ. Extracellular administration was performed using the ALA-VC-8PG™ system. A single independently growing cell was selected. After forming a tight seal between the glass electrode and the cell membrane, the membrane was ruptured to establish the whole-cell configuration. The cell membrane potential was clamped at -60 mV and recorded in Gap-free mode. During the test, extracellular fluid was first applied externally for approximately 20 seconds. After the baseline (Iprebaseline) was stabilized, the extracellular solution was switched to GABA-ECS. At this point, the current induced by GABA (Igaba) can be detected. After approximately 10 to 20 seconds, once the current had stabilized, the extracellular solution was switched to a mixture of the compound and GABA-ECS until the current induced by both the compound and GABA (Itreatment) could be detected. Finally, the solution was switched to extracellular fluid, and the recording was terminated after 20 to 40 seconds. Only cells with a stable baseline, an absolute control current magnitude (Igaba - Iprebaseline) greater than 40 pA, and a relatively stable current within 10 to 20 seconds were used for compound testing. […]
Background: In patch-clamp work, channel activity is measured electrically.

The target of experiment [2] is T1, α2-GABAA receptor. The experiment can be described thus: Radioactive ligand (3H-flunitrazepam) competitive binding assay, BZD site of membrane proteins of α2-GABAAR-HEK293 cells. The settings on record: competition with 1 nM 3H-flunitrazepam; HEK293 membranes expressing α2, β3, γ2 subunits; Ki calculated from IC50; read-out: α2 Ki.
Description: as §1, §2
The affinity of the compound for the α2-GABAA receptor was determined by competing with ^3H-flunitrazepam (isotope ^3H-labeled flunitrazepam) for binding to the BZD site of membrane proteins in HEK293 cells stably expressing human α2-GABAAR.
Membrane preparation: Cells were suspended in 50 mM Tris-HCl buffer (pH=7.4), homogenized on ice using a homogenizer for 20 seconds with 10 repetitions, and centrifuged at 4°C, 1000g for 10 minutes. The supernatant was collected, and the above steps were repeated. The supernatant was centrifuged at 4°C (33,800 × g; Thermo, rotor: A27-8x50) for 60 minutes, and the pellet was resuspended in Tris buffer (50 mM Tris-HCl, 10 mM MgCl2, 0.5 mM EDTA, 10% glycerol). The protein concentration was determined using the bicinchoninic acid (BCA) protein assay based on the copper ion reduction method (BCA kit purchased from Pierce (Annoron)). Aliquots of 1 mL were prepared and stored at -80°C.
Radioactive ligand competitive binding assay: This assay was conducted in a 200 µL system (96-well plate), containing 100 µL of cell membrane. The concentration of ^3H-flunitrazepam was 1 nM, and the concentration of the test compound ranged from […]. Flumazenil was used as a control. The low signal control well (Low Control, LC) was added with 1 µL of 2 mM flumazenil (final concentration 10 µM), while the high signal control well (High Control, HC) was added with 1 µL of dimethyl sulfoxide. The final concentration of the target membrane protein was 5 µg/well. All test compound stock solutions were prepared as 10 mM solutions in dimethyl sulfoxide. The working concentration of the samples was prepared by diluting all samples to 0.2 mM with dimethyl sulfoxide, followed by a 4-fold serial dilution to obtain a total of 8 concentration gradients. The 96-well plate was sealed with sealing film and then incubated on a shaker at room temperature for 1 hour. The GF/C filter plate was also soaked with a soaking buffer (0.3% PEI (polyethyleneimine, purchased from: Sigma-Aldrich, model: P314), stored at 4°C) for at least 0.5 hours. After the incubation was completed, the mixture was collected onto a GF/C filter plate using a cell harvester and washed four times with wash buffer (50 mM Tris-HCl, pH 7.4, stored at 4°C). After drying in a 50°C oven for 1 hour, the dried GF/C filter plate was sealed at the bottom with a film. The residual radioactivity on the filter membrane was detected using liquid scintillation counting. Each well was filled with 50 µL of scintillation fluid and sealed. Readings were taken using a Microbeta^2 (microplate counter, purchased from PerkinElmer, model: CNLL0153). The inhibitory activity of the test sample on the binding of ^3H-flunitrazepam to GABAA receptor membrane protein was calculated. […]

[3] abbreviates: compound 100 nM, GABA 0.10 to 0.11 µM (approximately EC7-8), normalized to reference compound CVL-865 (= 100%).

Where a name gives a salt, the structure may show the parent alone. Read-outs that look alike come from different tables or passages of the source.

What is called Ki is a measure of affinity in units of concentration, obtained from inhibition or displacement. Turning to `CCCNC(=O)c1nc2c(-c3c(F)cccc3OC)cccn2c1N` [Example 3, 3-Amino-8-(2-fluoro-6-methoxyphenyl)-N-propylimidazo[1,2-a]pyridine-2-carboxamide], the Emax at 0.1 µM in experiment [1] (setting [3]) is 105%. For the same compound, the Ki in experiment [2] is 0.024 µM.
Taken in the same sequence, the figures for `COc1cccc(F)c1-c1cccn2c(N)c(C(=O)NC3CC3)nc12` [Example 5, 3-Amino-8-(2-fluoro-6-methoxyphenyl)-N-cyclopropylimidazo[1,2-a]pyridine-2-carboxamide] were 65% and 0.039 µM.
Taken in the same sequence, the figures for `COc1cccc(F)c1-c1cccn2c(N)c(C(=O)NCC3CC3)nc12` [Example 6, 3-Amino-N-(cyclopropylmethyl)-8-(2-fluoro-6-methoxyphenyl)imidazo[1,2-a]pyridine-2-carboxamide] were 57% and 0.024 µM.
In the same order, the values of `COc1cccc(F)c1-c1cccn2c(N)c(C(=O)NC3CCC3)nc12` [Example 7, 3-Amino-8-(2-fluoro-6-methoxyphenyl)-N-cyclobutylimidazo[1,2-a]pyridine-2-carboxamide] are 52% and 0.0149 µM.
For the compound `COc1cccc(F)c1-c1cccn2c(N)c(C(=O)NC3CC(C)C3)nc12` (stereo not shown) [Example 8, 3-Amino-8-(2-fluoro-6-methoxyphenyl)-N-(3-methylcyclobutyl)imidazo[1,2-a]pyridine-2-carboxamide], in experiment [1] (setting [3]), the Emax at 0.1 µM amounted to 66%. In experiment [2], the Ki is 0.0119 µM.
With `COc1cccc(F)c1-c1cccn2c(N)c(C(=O)NC3CC(F)(F)C3)nc12` [Example 9, 3-Amino-N-(3,3-difluorocyclobutyl)-8-(2-fluoro-6-methoxyphenyl)imidazo[1,2-a]pyridine-2-carboxamide], the Emax at 0.1 µM in experiment [1] (setting [3]) amounted to 52%. In experiment [2], the Ki is 0.093 µM.
In the same order, the values of `COc1cccc(F)c1-c1cccn2c(N)c(C(=O)NC3CCCC3)nc12` [Example 12, 3-Amino-N-cyclopentyl-8-(2-fluoro-6-methoxyphenyl)imidazo[1,2-a]pyridine-2-carboxamide] are 32% and 0.0341 µM.
In the same order, the values of `COc1cccc(F)c1-c1cccn2c(N)c(C(=O)Nc3ccccc3)nc12` [Example 13, 3-Amino-8-(2-fluoro-6-methoxyphenyl)-N-phenylimidazo[1,2-a]pyridine-2-carboxamide] are 107% and 0.044 µM.
For the compound `COc1cccc(F)c1-c1cccn2c(N)c(C(=O)Nc3cc(C)on3)nc12` [Example 16, 3-Amino-8-(2-fluoro-6-methoxyphenyl)-N-(5-methylisoxazol-3-yl)imidazo[1,2-a]pyridine-2-carboxamide], the Emax at 0.1 µM in experiment [1] (setting [3]) amounted to 200%. Further, in experiment [2], the Ki is 0.0193 µM.
`CCCNC(=O)c1nc2c(-c3cccc(C(F)(F)F)c3)cccn2c1N` [Example 47, 3-Amino-N-propyl-8-(3-(trifluoromethyl)phenyl)imidazo[1,2-a]pyridine-2-carboxamide]: the Ki in experiment [2] is 0.0352 µM.
As to `CCCNC(=O)c1nc2c(-c3cccc(Cl)c3F)cccn2c1N` [Example 66, 3-Amino-8-(3-chloro-2-fluorophenyl)-N-propylimidazo[1,2-a]pyridine-2-carboxamide], in experiment [2], the Ki was 0.00244 µM.
For `CCCNC(=O)c1nc2c(-c3c(F)cccc3OC)c(C)ccn2c1N` [Example 132, 3-Amino-8-(2-fluoro-6-methoxyphenyl)-7-methyl-N-propylimidazo[1,2-a]pyridine-2-carboxamide], in experiment [1] (setting [3]), the Emax at 0.1 µM was found to be 48%.
`CCCNC(=O)c1nc2c(-c3cnoc3C)cccn2c1N` [Example 141, 3-Amino-8-(5-methyl-1,2-oxazol-4-yl)-N-propylimidazo[1,2-a]pyridine-2-carboxamide]: the Emax at 0.1 µM in experiment [1] (setting [3]) was 44%.
On the same count and under the same terms, to `CCCNC(=O)c1nc2c(-c3cccnc3C)cccn2c1N` [Example 142, 3-Amino-8-(2-methylpyridin-3-yl)-N-propylimidazo[1,2-a]pyridine-2-carboxamide] belongs 45%.
In the case of `CCCNC(=O)c1nc2c(CC(C)C)cccn2c1N` [Example 143, 3-Amino-8-isobutyl-N-propylimidazo[1,2-a]pyridine-2-carboxamide hydrochloride], the Emax at 0.1 µM in experiment [1] was 48%.
As for `[2H]c1ccn2c(N)c(C(=O)NCCC)nc2c1-c1c(F)cccc1OC` [Example 150, 3-Amino-8-(2-fluoro-6-methoxyphenyl)-N-propylimidazo[1,2-a]pyridine-7-deuterio-2-carboxamide], the Emax at 0.1 µM in experiment [1] (setting [3]) came out at 85%.
In the case of `[2H]c1cc(-c2c(F)cccc2OC)c2nc(C(=O)NCCC)c(N)n2c1` [Example 154, 3-Amino-8-(2-fluoro-6-methoxyphenyl)-N-propylimidazo[1,2-a]pyridine-6-deuterio-2-carboxamide], in experiment [1] (setting [3]), the “α2-GABAAR Positive allosteric modulatory activity” value was 84%.
Take `CCCNC(=O)c1nc2c(-c3c(F)cccc3OC)cc(F)cn2c1N` [Example 155, 3-Amino-6-fluoro-8-(2-fluoro-6-methoxyphenyl)-N-propylimidazo[1,2-a]pyridine-2-carboxamide]: in experiment [1] (setting [3]), the Emax at 0.1 µM is 56%.
As to `[2H]c1ccc(-c2c(F)cccc2OC)c2nc(C(=O)NCCC)c(N)n12` [Example 156, 3-amino-8-(2-fluoro-6-methoxyphenyl)-N-propylimidazo[1,2-a]pyridine-5-deuterium-2-carboxamide], in experiment [1] (setting [3]), the “α2-GABAAR Positive allosteric modulatory activity” value was found to be 100%.
